The source of these data is patent US20190327974A1, “SYNERGISTS FOR IMPROVED PESTICIDES” (priority 2017, published 2019).

Data set [1] concerns Myzus persicae (Green peach aphid). As to the kind of experiment: CPE combined with boronic acid derivatives on small broad bean leaves. The format is in vivo. The conditions noted are these: for Percentage of efficacy: boronic acid, where present, 0.2 mg/ml; for toxicity of the boronic acid derivative alone (in words): ANOVAs followed by Newman-Keuls tests, threshold 5%; for insecticidal efficacy of CPE on addition of the compound (in words): CPE at 2.8 g a.i./ha and 5.6 g a.i./ha. Here is the method: […] The treatment was performed with an agricultural nozzle (300 L per hectare) […]. A non-treated control condition were also evaluated in parallel. Statistical analysis of the data was then performed. When the leaves were totally dry, 3 leaves were sampled and infested with 3 wingless adults of M. persicae per leaf fragment.
• T+1 (DAT 1)—One day later the number of adults remaining on the leaves was counted. • T+3 (DAT 3)—3 days after treatment the aphid population was estimated; • T+7 (DAT 7)—7 days after treatment the development of aphid population was estimated.
3 bean leaves fragments per microbox*4 microbox per condition (1 condition is 1 formulation at 1 dose)*9 adult aphids per microbox*4 insecticides (3 chlorpyrifos derivates+clorpyrifos alone)*4 rates+2 controls (1 reference insecticide formulation at one dose and non-treated)*3 assessments timings (DAT+1, DAT+3 and DAT+7).

The target of data set [2] is T1, Electrophorus electricus AChE (Electrophorus electricus, UniProt O42275).
T1 construct: purchased Sigma Type V-S
T1 sequence (O42275 24-633): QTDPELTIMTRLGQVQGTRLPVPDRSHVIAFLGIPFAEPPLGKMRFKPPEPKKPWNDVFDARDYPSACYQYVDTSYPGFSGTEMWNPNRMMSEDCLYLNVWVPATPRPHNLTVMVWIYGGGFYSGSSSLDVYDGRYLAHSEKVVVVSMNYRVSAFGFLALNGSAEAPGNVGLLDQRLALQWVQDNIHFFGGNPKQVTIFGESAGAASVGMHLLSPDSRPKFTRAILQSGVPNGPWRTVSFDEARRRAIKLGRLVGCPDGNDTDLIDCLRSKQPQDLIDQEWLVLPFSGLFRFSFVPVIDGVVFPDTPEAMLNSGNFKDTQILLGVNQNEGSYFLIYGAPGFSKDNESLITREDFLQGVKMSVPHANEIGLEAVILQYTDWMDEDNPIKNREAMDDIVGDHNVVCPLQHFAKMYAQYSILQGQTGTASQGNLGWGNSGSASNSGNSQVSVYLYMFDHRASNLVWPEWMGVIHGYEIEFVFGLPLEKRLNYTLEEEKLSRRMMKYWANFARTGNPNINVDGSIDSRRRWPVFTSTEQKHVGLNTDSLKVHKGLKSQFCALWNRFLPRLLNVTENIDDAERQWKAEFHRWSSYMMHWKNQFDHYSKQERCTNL
As to the kind of experiment: AChE selectivity (Ellman, acetylthiocholine). The format is biochemical. The conditions noted are these: for Ki: tested to solubility limit, read-out: Ki Ee AChE. The method, then: Initially, the KM for AChE with the substrate acetylthiocholine was determined by monitoring thiocholine production with 5,5′-dithiobis(2-nitrobenzoic acid) (DTNB) at 412 nm. Acetylthiocholine was prepared in assay buffer (100 mM NaH2PO4 pH 7.4) to 10 mM and serially diluted 1-in-2 to achieve concentrations from 10 mM to 0.08 mM while AChE was prepared in 20 mM NaH2PO4 pH 7.0 supplemented with 4 mg/ml BSA to 0.4 nM. […] The reaction was initiated by the addition of 20 μl AChE (40 pM final concentration). Product formation was monitored for six minutes at room temperature and the initial rates of thioester hydrolysis were determined by linear regression using GraphPad Prism. The Michalis constant was determined as before (FIG. 10).
AChE inhibition was determined by assaying the initial rate of acetylthiocholine hydrolysis in the presence of either neat DMSO or the boronic acid compounds in DMSO. […] Reactions were prepared by pipetting 178 μl assay buffer supplemented with acetylthiocholine (to a final concentration of 100 μM) and DTBN (to a final concentration of 300 μM) into wells of a 96-well plate. […] The reaction was initiated by the addition of 20 μl enzyme (final concentration 40 pM). Product formation was monitored for six minutes at room temperature and the initial rates of thioester hydrolysis were determined by linear regression. IC50 and Ki values were determined as described previously (FIG. 9).
(In general: Ellman's reagent forms a yellow product with free thiols.)

The subject of the next data set is HB-2 cells. As to the kind of experiment: Cellular toxicity, Cell Titer Glo. The format is cell-based, human. The conditions noted are these: for IC50: Homo sapiens, 48 h incubation, Cell Titer Glo, read-out: Viability IC50 HB-2; for toxicity to HB-2 cells (in words): 48 h, up to 100 μM. Here is the method:
(§1) A seven-point, two-fold dose response series, with a 100 uM as the upper limit and a DMSO-only control point was generated using an Echo 550 liquid handler (Labcyte Inc.) in 384-well plates. Subsequently, the human breast cell lines MDA-MB-231 (tumorigenic) and HB2 (non-tumorigenic) were seeded (1000 cells/well) using a multi-drop Combi (Thermo Fisher Scientific) on top of the compounds. Plates were then incubated at 37° C. and 5% CO2 for 48 hours upon which cell viability was assessed by adding CellTiter-Glo® (Promega) to the reaction. The luminescence signal was measured on a Pherastar FS multi-mode plate reader (BMG Labtech).
On the technique in general: ATP-based viability assays read luminescence as a measure of living cells.

The test system of the next data set is MDA-MB-231 cells. As to the kind of experiment: Cellular toxicity, Cell Titer Glo. The format is cell-based, human. The conditions noted are these: for IC50: Homo sapiens, MDA-MB-231, 48 h incubation, Cell Titer Glo, read-out: Viability IC50 MDA-MB-231; for toxicity to MDA-MB-231 cells (in words): 48 h, up to 100 μM. The method, then: as §1
For a further data set, the system named is 293T. As to the kind of experiment: Cell toxicity panel, viability (luminescence). Format: cell-based. The conditions noted are these: Homo sapiens, HEK-293T; Readout: Luminescence; read-out: IC50 Viability Cells, Cell line: 293T. The method, then: (§2) To further establish the safety and cell toxicity of compounds according to this invention, their IC50 in killing a broad panel of human cell lines (including both cancerous and non-cancerous) cell lines was determined, and their cell toxicity was tested.

For a further data set, the system named is PC3. As to the kind of experiment: Cell toxicity panel, viability (luminescence). Format: cell-based, human. The conditions noted are these: Readout: Luminescence, read-out: IC50 Viability Cells, Cell line: PC3. The method, then: as §2
The test system of another data set is HCT116. Briefly: Cell toxicity panel, viability (luminescence). The conditions noted are these: Readout: Luminescence, read-out: IC50 Viability Cells, Cell line: HCT116. Format: cell-based, human. Here is the method:
as §2

The next data set concerns H23. Briefly: Cell toxicity panel, viability (luminescence). The format is cell-based, human. The conditions noted are these: Readout: Luminescence, read-out: IC50 Viability Cells, Cell line: H23. The method, then: as §2
Another data set has as its system Hela. Briefly: Cell toxicity panel, viability (luminescence). The format is cell-based, human. The conditions noted are these: Readout: Luminescence, read-out: IC50 Viability Cells, Cell line: Hela. The method, then: as §2
For a further data set, the system named is HT29. Briefly: Cell toxicity panel, viability (luminescence). The conditions noted are these: Readout: Luminescence, read-out: IC50 Viability Cells, Cell line: HT29. The format is cell-based, human. Here is the method:
as §2

A further data set relates to Colo205. As to the kind of experiment: Cell toxicity panel, viability (luminescence). The format is cell-based, human. The conditions noted are these: Readout: Luminescence, read-out: IC50 Viability Cells, Cell line: Colo205. The method, then:
as §2

Data set [3] relates to HB-2 and MDA-MB-231 human cell lines. As to the kind of experiment: Cell toxicity, two human cell lines HB-2 and MDA-MB-231. The conditions noted are these: 48 h, up to 100 μM. Format: cell-based. The method, then:
FIG. 13 depicts that boronic acids show little cell toxicity. Compounds 1-5 as well as 3.9 and 3.10 were incubated for 48 h with two different human cell lines HB-2 and MDA-MB-231 at 7 concentrations up to 100 μM. Cell viability was measured after 48 h using Cell Titer Glo assay.
as §1

Molecules are shown by their SMILES. Where two headings read alike, the source gives them in different places.

As a reminder, the Ki is a measure of affinity in units of concentration, obtained from inhibition or displacement. By IC50 is commonly meant the point on the concentration scale where inhibition reaches its midpoint.

For `CCOP(=S)(OCC)Oc1nc(Cl)c(Cl)cc1Cl` [CPE, Chlorpyrifos-ethyl], the Percentage of efficacy in data set [1] (1 DAT, CPE 0.7) worked out at 38%; in data set [1] (1 DAT, CPE 1.4), 41%; in [1] (1 DAT, CPE 2.8 g a.i./ha) it was 32%; in [1] (1 DAT, CPE 5.6 g a.i./ha), 36%; in data set [1] (3 DAT, CPE 0.7), 20%; in data set [1] (3 DAT, CPE 1.4), 27%. Further, the Percentage of efficacy in data set [1] (3 DAT, CPE 2.8 g a.i./ha) amounted to 26%; in data set [1] (3 DAT, CPE 5.6 g a.i./ha) it was 48%; in data set [1] (7 DAT, CPE 0.7) it was 25%; in [1] (7 DAT, CPE 1.4), 25%; in [1] (7 DAT, CPE 2.8 g a.i./ha), 23%; in [1] (7 DAT, CPE 5.6 g a.i./ha) it was 67%. Further, the Calibration results in data set [1] (1 DAT, CPE 1.4) was 33%; in data set [1] (1 DAT, CPE 2.8) it was 31%; in data set [1] (1 DAT, CPE 5.6) it was 67%; in [1] (3 DAT, CPE 1.4) it was 51%; in data set [1] (3 DAT, CPE 2.8), 79%; in [1] (3 DAT, CPE 5.6), 98%. The Calibration results was 51% in data set [1] (7 DAT, CPE 1.4); 99% in data set [1] (7 DAT, CPE 2.8); 100% in data set [1] (7 DAT, CPE 5.6).
On to `Cc1ccc(B(O)O)cc1Br` [Compound 1], for which the inhibitory constant (Ki) in data set [2] was more than 1000 µM. In addition, the IC50 was more than 100 µM in the data set with HB-2 cells; more than 100 µM in the data set on MDA-MB-231 cells; more than 99.8 µM in the data set with 293T; more than 99.8 µM in the data set with PC3 (Homo sapiens, PC-3); more than 99.8 µM in the data set on HCT116 (Homo sapiens, HCT-116); more than 99.8 µM with H23 (Homo sapiens, NCI-H23). The IC50 in the data set with Hela (Homo sapiens, HeLa) was 37.9 µM; in the data set with HT29 (Homo sapiens, HT-29) it was more than 99.8 µM; with Colo205 (Homo sapiens, COLO 205) it was more than 99.8 µM.
For `Cc1ccc(B(O)O)cc1OCc1ccccc1` [Compound 2], the Ki in [2] was more than 300 µM. Also, the “toxicity to HB-2 cells (in words)” value with HB-2 cells is “low toxicity”. The IC50 is 20.5 µM in the data set on HB-2 cells; more than 100 µM in the data set with MDA-MB-231 cells; 42.9 µM in the data set with 293T; 49.1 µM in the data set on PC3 (Homo sapiens, PC-3); 62.8 µM with HCT116 (Homo sapiens, HCT-116); more than 99.8 µM in the data set with H23 (Homo sapiens, NCI-H23). Further, the IC50 with Hela (Homo sapiens, HeLa) amounted to 4 µM; with HT29 (Homo sapiens, HT-29) it was 34.1 µM; with Colo205 (Homo sapiens, COLO 205), 91.5 µM. For the same compound, in data set [3], the “cellular toxicity” value is listed as “low toxicity against HB-2”.
Take `OB(O)c1cc(Br)cc(N2CCOCC2)c1` [Compound 3.1]: the 50% inhibitory concentration (IC50) with PC3, with HCT116, in the data set with H23, in the data set on Hela, in the data set with HT29 and in the data set with Colo205 was more than 99.8 µM each time.
With `CC(C)Oc1cc(Br)cc(B(O)O)c1` [Compound 3.7, 3-Bromo-5-isopropoxyphenylboronic acid], in [1], the “toxicity of the boronic acid derivative alone (in words)” value is on record as “No significant toxicity” and the “insecticidal efficacy of CPE on addition of the compound (in words)” value is “increased”.
For the compound `OB(O)c1cc(Br)cc(OCc2ccccc2)c1` [Compound 3.9], the “toxicity to HB-2 cells (in words)” value in the data set with HB-2 cells is “do not exhibit any cellular toxicity”. In addition, in the data set on MDA-MB-231 cells, the “toxicity to MDA-MB-231 cells (in words)” value was “do not exhibit any cellular toxicity”. In addition, the 50% inhibitory concentration (IC50) in the data set on 293T is more than 99.8 µM; in the data set on PC3 (Homo sapiens, PC-3) it was more than 99.8 µM; in the data set on HCT116 (Homo sapiens, HCT-116), more than 99.8 µM; in the data set on H23 (Homo sapiens, NCI-H23) it was 99.3 µM; in the data set with Hela (Homo sapiens, HeLa), 2.1 µM; in the data set with HT29 (Homo sapiens, HT-29), 72.8 µM. Also, the IC50 in the data set with Colo205 (Homo sapiens, COLO 205) was more than 99.8 µM. Further, the “cellular toxicity” value in data set [3] was “do not exhibit any cellular toxicity up to 100 μM”.
`OB(O)c1cc(Br)cc(Oc2ccccc2)c1` [Compound 3.10, 3-Bromo-5-phenoxyfenylboronic acid]: the “toxicity to HB-2 cells (in words)” value in the data set on HB-2 cells is “do not exhibit any cellular toxicity”. Besides, in the data set on MDA-MB-231 cells, the “toxicity to MDA-MB-231 cells (in words)” value is recorded as “do not exhibit any cellular toxicity”. In addition, in data set [1], the “toxicity of the boronic acid derivative alone (in words)” value is recorded as “No significant toxicity” and the “insecticidal efficacy of CPE on addition of the compound (in words)” value is “increased”. For the same compound, the “cellular toxicity” value in [3] was “do not exhibit any cellular toxicity up to 100 μM”.
Take `OB(O)c1cc(Br)cc(N2CCCC2)c1` [Compound 3]: in [2], the Ki was 270 µM. Also, in data set [2] (tested to solubility limits (FIG. 9)), the “inhibition of Electrophorus electricus acetylcholinesterase” value is more than 50%. The IC50 is more than 100 µM with HB-2 cells; more than 100 µM in the data set on MDA-MB-231 cells; more than 99.8 µM in the data set on 293T; more than 99.8 µM with PC3 (Homo sapiens, PC-3); more than 99.8 µM in the data set with HCT116 (Homo sapiens, HCT-116); more than 99.8 µM in the data set on H23 (Homo sapiens, NCI-H23). The IC50 with Hela (Homo sapiens, HeLa) is 8.1 µM; in the data set on HT29 (Homo sapiens, HT-29), more than 99.8 µM; in the data set on Colo205 (Homo sapiens, COLO 205) it was more than 99.8 µM.
Consider `OB(O)c1ccc2ccccc2c1` [Compound 4], for which the Ki in [2] was more than 1000 µM. Further, the IC50 was more than 100 µM in the data set on HB-2 cells; more than 100 µM with MDA-MB-231 cells; more than 99.8 µM in the data set on 293T; more than 99.8 µM in the data set on PC3 (Homo sapiens, PC-3); more than 99.8 µM with HCT116 (Homo sapiens, HCT-116); 32.7 µM in the data set with Hela (Homo sapiens, HeLa). Besides, the IC50 was more than 99.8 µM in the data set on HT29 (Homo sapiens, HT-29) and more than 99.8 µM in the data set on Colo205 (Homo sapiens, COLO 205).
For `OB(O)c1ccccc1` [PBA, phenylboronic acid, reference compound], the Ki in [2] is more than 10000 µM.
